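In this assay, cells in 96-well plates receive the compound at five concentrations for 48 hours. Endpoints are linearly interpolated between the surrounding concentrations. GI50 marks 50% less growth. TGI marks complete inhibition of growth.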
Key:
Assay in all cases: NCI-60 cell line screen, 48 h
HOP-62 NSCLC = tested on: HOP-62 NSCLC
MDA-MB-435 = tested on: MDA-MB-435
LOX IMVI melanoma = tested on: LOX IMVI melanoma
NCI-H23 lung = tested on: NCI-H23 lung
HT29 colon = tested on: HT29 colon
IGROV1 ovarian = tested on: IGROV1 ovarian
A549 NSCLC = tested on: A549 NSCLC
U251 CNS = tested on: U251 CNS
SK-OV-3 ovarian = tested on: SK-OV-3 ovarian
CAKI-1 renal = tested on: CAKI-1 renal

Compound | GI50 (HOP-62 NSCLC) [µM] | TGI (HOP-62 NSCLC) [µM] | GI50 (MDA-MB-435) [µM] | TGI (MDA-MB-435) [µM] | GI50 (LOX IMVI melanoma) [µM] | TGI (LOX IMVI melanoma) [µM] | GI50 (NCI-H23 lung) [µM] | TGI (NCI-H23 lung) [µM] | GI50 (HT29 colon) [µM] | TGI (HT29 colon) [µM] | GI50 (IGROV1 ovarian) [µM] | TGI (IGROV1 ovarian) [µM] | GI50 (A549 NSCLC) [µM] | TGI (A549 NSCLC) [µM] | GI50 (U251 CNS) [µM] | TGI (U251 CNS) [µM] | GI50 (SK-OV-3 ovarian) [µM] | TGI (SK-OV-3 ovarian) [µM] | GI50 (CAKI-1 renal) [µM] | TGI (CAKI-1 renal) [µM]
COc1ccc(-c2ccc(/C=C/C(=O)NO)cc2)cc1 | 1.31 | 3.11 | 2.12 | > 100 | 0.417 | 2.61 | 1.53 | 6.18 | 3.56 | > 100 | 0.768 | 9.66 | 0.317 | 6.14 | 1.14 | 3.08 | 1.18 | 3.21 | 1.42 | 6.11
O=C1NC(=O)/C(=C/C=C/c2ccccc2)S1 | 1.37 | 33.1 | 5.46 | > 78.7 | 0.999 | 14.7 | 1.74 | > 41.4 | 12.1 | > 100 | 12.2 | 57.5 | 11.1 | > 100 | 0.693 | 18.1 | 38.7 | > 100 | 0.46 | 8.86
CC1(C)N=C(N)N=C(N)N1c1cccc(C#N)c1 | 16.6 | > 100 | 0.594 | > 100 | 0.605 | > 100 | 5.32 | > 100 | 0.933 | > 100 | 6.7 | > 100 | 0.932 | > 100 | 0.752 | > 100 | 21.2 | > 100 | 2.45 | > 100

Source: PubChem BioAssay (NCI)
